Experimental data: patent US6849664B2, “Process for disposing biocide-containing cooling water” (priority 2001, dated 2005)
Where two headings read alike, the source gives them in different places.

What was measured:
[1] = tested on: bacterial inoculum; experiment: Neutralization of biocides with MEA, microbial growth in minimal media / Fischer-Tropsch diesel fuel; assay type: cell-based
Procedure: Growth Media: A standard minimal media containing only inorganic nutrients required for bacterial growth was used. The medium used to supply inorganic micronutrients to the growing culture of alkane degrading organisms consists of 0.1 g/L MgSO4.7H2O, 0.5 g/L NaNO3, 0.02 mM FeSO4 and 0.63 g/L K2HPO4 and 0.19 g/L KH2PO4 to achieve a pH of 7 to 7.3.
Test Conditions: 90 ml of media and 10 ml of the product to be tested (n-C16) were added to 250 ml flasks. […] After inoculation, the flasks were placed on a shaker-table (135 rpm) at room temperature in contact with air and observed daily.
In all experiments, a 10:1 ratio of minimal media to Fischer-Tropsch diesel fuel were prepared and evaluated in 250 ml flasks.

[2] = tested on: Larval Sheepshead Minnow (Cyprinodon variegatus); details: in vivo, 96 h
Procedure: […]. EPA/600/4-90/027F Washington, D.C.) conducted at Pacific Eco-Risk Laboratories, Martinez, Calif.
LOEC is the Lowest Observable Effect Concentration and is defined as the minimum concentration where mortality is observed for the test species. […] LC-50, the concentration that will cause mortality of 50% of the organisms tested within 96 h, is a calculated value based on all observations.

[3] = tested on: bacterial inoculum; details: for neutralizing 10 ppm of glutaraldehyde: two moles of nitrogen-containing compound to glutaraldehyde
Procedure: A series of different nitrogen-containing compounds were evaluated as materials to neutralize glutaraldehyde. For these experiments, 10:1 ratio of minimal media to n-C16 were prepared, mixed with 10 ppm of glutaraldehyde (G) and evaluated in 250 ml flasks.
Two moles of each of the nitrogen-containing compound to glutaraldehyde were added to the flasks. Then 10 μl of the bacterial inoculum was added to each flask.
Control samples were also run with the nitrogen-containing compound and without the glutaraldehyde. These control samples permitted an assessment of the toxicity of the nitrogen-containing compound.

[4] = tested on: bacteria; experiment: Neutralization of glutaraldehyde with H2O2 and NH4Cl, microbial growth test; assay type: cell-based
Procedure: […]. In this experiment, minimal medium, containing 1, 10 or 100 ppm of glutaraldehyde, were mixed with a five times molar excess of H2O2 or NH4Cl. Hydrocarbonaceous product and bacteria were then added to the mixture. While microbial growth was observed after 5 days in control samples containing no glutaraldehyde, no growth was observed after 14 days in samples containing glutaraldehyde and H2O2 or NH4Cl. […].

[5] = 10 ppm glutaraldehyde with two moles of the nitrogen-containing compound to glutaraldehyde, time 0 days
[6] = 10 ppm glutaraldehyde with two moles of the nitrogen-containing compound to glutaraldehyde, time 1 days
[7] = 10 ppm glutaraldehyde with two moles of the nitrogen-containing compound to glutaraldehyde, time 2 days
[8] = 10 ppm glutaraldehyde with two moles of the nitrogen-containing compound to glutaraldehyde, time 6 days
[9] = 10 ppm glutaraldehyde with two moles of the nitrogen-containing compound to glutaraldehyde, time 7 days
[10] = 10 ppm glutaraldehyde with two moles of the nitrogen-containing compound to glutaraldehyde, time 9 days
[11] = 10 ppm glutaraldehyde with two moles of the nitrogen-containing compound to glutaraldehyde, time 13 days
[12] = 10 ppm glutaraldehyde with two moles of the nitrogen-containing compound to glutaraldehyde, time 20 days
[13] = control: nitrogen-containing compound without the glutaraldehyde, time 0 days
[14] = control: nitrogen-containing compound without the glutaraldehyde, time 1 days
[15] = control: nitrogen-containing compound without the glutaraldehyde, time 2 days
[16] = control: nitrogen-containing compound without the glutaraldehyde, time 6 days
[17] = control: nitrogen-containing compound without the glutaraldehyde, time 7 days
[18] = control: nitrogen-containing compound without the glutaraldehyde, time 9 days
[19] = control: nitrogen-containing compound without the glutaraldehyde, time 13 days
[20] = control: nitrogen-containing compound without the glutaraldehyde, time 20 days

O=CCCCC=O [Glutaraldehyde, glutaraldehyde]
Growth / No Growth ([1]; 1 ppm G, time 0 days): −
Growth / No Growth ([1]; 1 ppm G, time 1 days): −
Growth / No Growth ([1]; 1 ppm G, time 2 days): −
Growth / No Growth ([1]; 1 ppm G, time 3 days): −
Growth / No Growth ([1]; 1 ppm G, time 7 days): −
Growth / No Growth ([1]; 1 ppm G, time 9 days): +
Growth / No Growth ([1]; 1 ppm G, time 14 days): +
Growth / No Growth ([1]; 10 ppm G, time 0 days): −
Growth / No Growth ([1]; 10 ppm G, time 1 days): −
Growth / No Growth ([1]; 10 ppm G, time 2 days): −
Growth / No Growth ([1]; 10 ppm G, time 3 days): −
Growth / No Growth ([1]; 10 ppm G, time 7 days): −
Growth / No Growth ([1]; 10 ppm G, time 9 days): −
Growth / No Growth ([1]; 10 ppm G, time 14 days): −
Growth / No Growth ([1]; 100 ppm G, time 0 days): −
Growth / No Growth ([1]; 100 ppm G, time 1 days): −
Growth / No Growth ([1]; 100 ppm G, time 2 days): −
Growth / No Growth ([1]; 100 ppm G, time 3 days): −
Growth / No Growth ([1]; 100 ppm G, time 7 days): −
Growth / No Growth ([1]; 100 ppm G, time 9 days): −
Growth / No Growth ([1]; 100 ppm G, time 14 days): −
LOEC [2]: 25 mg/L
NOEC [2]: 13 mg/L

Nc1ccccc1 [aniline, Aniline]
toxicity of the nitrogen-containing compound to microbial growth [3]: excessively toxic
Growth / No Growth [3, 5]: −
Growth / No Growth [3, 6]: −
Growth / No Growth [3, 7]: −
Growth / No Growth [3, 8]: −
Growth / No Growth [3, 9]: −
Growth / No Growth [3, 10]: −
Growth / No Growth [3, 11]: −
Growth / No Growth [3, 12]: −
Growth / No Growth [3, 13]: −
Growth / No Growth [3, 14]: −
Growth / No Growth [3, 15]: −
Growth / No Growth [3, 16]: −
Growth / No Growth [3, 17]: −
Growth / No Growth [3, 18]: −
Growth / No Growth [3, 19]: −
Growth / No Growth [3, 20]: −

CCNCC [diethylamine, Diethylamine]
toxicity of the nitrogen-containing compound to microbial growth [3]: not excessively toxic
Growth / No Growth [3, 5]: −
Growth / No Growth [3, 6]: −
Growth / No Growth [3, 7]: −
Growth / No Growth [3, 8]: +
Growth / No Growth [3, 9]: +
Growth / No Growth [3, 10]: +
Growth / No Growth [3, 11]: +
Growth / No Growth [3, 12]: +
Growth / No Growth [3, 13]: −
Growth / No Growth [3, 14]: −
Growth / No Growth [3, 15]: −
Growth / No Growth [3, 16]: +
Growth / No Growth [3, 17]: +
Growth / No Growth [3, 18]: +
Growth / No Growth [3, 19]: +
Growth / No Growth [3, 20]: +
neutralizing 10 ppm of glutaraldehyde [3]: effective

OCCNCCO [DEA, Diethanolamine]
toxicity of the nitrogen-containing compound to microbial growth [3]: not excessively toxic
Growth / No Growth [3, 5]: −
Growth / No Growth [3, 6]: +
Growth / No Growth [3, 7]: +
Growth / No Growth [3, 8]: +
Growth / No Growth [3, 9]: +
Growth / No Growth [3, 10]: +
Growth / No Growth [3, 11]: +
Growth / No Growth [3, 12]: +
Growth / No Growth [3, 13]: −
Growth / No Growth [3, 14]: −
Growth / No Growth [3, 15]: −
Growth / No Growth [3, 16]: +
Growth / No Growth [3, 17]: +
Growth / No Growth [3, 18]: +
Growth / No Growth [3, 19]: +
Growth / No Growth [3, 20]: −
neutralizing 10 ppm of glutaraldehyde [3]: effective

Cl.N [NH4Cl]
microbial growth [4]: no growth

OO [H2O2]
microbial growth [4]: no growth

NCCO [MEA, monoethanolamine]
toxicity of the nitrogen-containing compound to microbial growth [3]: not excessively toxic
Growth / No Growth [3, 5]: −
Growth / No Growth [3, 6]: −
Growth / No Growth [3, 7]: −
Growth / No Growth [3, 8]: +
Growth / No Growth [3, 9]: +
Growth / No Growth [3, 10]: +
Growth / No Growth [3, 11]: +
Growth / No Growth [3, 12]: +
Growth / No Growth [3, 13]: −
Growth / No Growth [3, 14]: −
Growth / No Growth [3, 15]: −
Growth / No Growth [3, 16]: −
Growth / No Growth [3, 17]: +
Growth / No Growth [3, 18]: +
Growth / No Growth [3, 19]: +
Growth / No Growth [3, 20]: +
neutralizing 10 ppm of glutaraldehyde [3]: effective
LOEC [2]: 1700 mg/L
NOEC [2]: 1000 mg/L
